CC50, EC50 and AC50 data for 35 molecules are collected here from ChEMBL document CHEMBL1201862, “PubChem BioAssay data set” (2004).

Activity calls are given as the source filed them.

Test [1] can be described thus: viability of uninfected HEp-2 cells – cell-based, HTS, cytotoxicity control for RSV inhibitor project, dose response (AID 2410). The conditions noted are these: human respiratory syncytial virus. The format is functional.
The target in test [2] is T1, Corticotropin-releasing factor receptor 2/Corticotropin-releasing factor-binding protein (Homo sapiens, UniProt P24387+Q13324).
T1 sequence (Q13324 whole entry): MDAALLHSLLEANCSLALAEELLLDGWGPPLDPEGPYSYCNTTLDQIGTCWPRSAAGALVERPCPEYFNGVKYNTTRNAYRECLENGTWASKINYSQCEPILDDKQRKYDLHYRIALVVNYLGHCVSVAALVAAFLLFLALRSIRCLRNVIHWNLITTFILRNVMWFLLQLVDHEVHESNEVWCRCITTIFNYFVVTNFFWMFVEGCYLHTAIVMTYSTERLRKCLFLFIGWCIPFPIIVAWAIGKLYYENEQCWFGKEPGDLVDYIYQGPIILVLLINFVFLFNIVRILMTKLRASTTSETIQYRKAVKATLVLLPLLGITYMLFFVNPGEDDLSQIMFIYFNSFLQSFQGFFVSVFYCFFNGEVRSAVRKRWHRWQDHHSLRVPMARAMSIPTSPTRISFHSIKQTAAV
T1 sequence (P24387 whole entry): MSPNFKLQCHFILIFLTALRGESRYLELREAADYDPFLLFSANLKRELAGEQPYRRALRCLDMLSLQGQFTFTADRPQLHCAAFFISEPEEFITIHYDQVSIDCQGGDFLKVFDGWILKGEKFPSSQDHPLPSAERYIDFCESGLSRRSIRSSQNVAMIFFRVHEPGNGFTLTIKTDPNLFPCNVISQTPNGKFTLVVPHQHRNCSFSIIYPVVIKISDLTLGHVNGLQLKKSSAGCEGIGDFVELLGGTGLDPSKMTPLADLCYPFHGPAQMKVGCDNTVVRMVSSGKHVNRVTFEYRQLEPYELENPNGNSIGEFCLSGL
The test can be described thus: activators of CRF receptor 2 with binding protein – uHTS hits, confirmation (AID 602473). The test is classed as functional. The conditions noted are these: read-out: EC50_Mean.

Test [3] has as its target T2, RNA-binding protein pos-1 (Caenorhabditis elegans, UniProt G5EF15).
T2 sequence (G5EF15 whole entry): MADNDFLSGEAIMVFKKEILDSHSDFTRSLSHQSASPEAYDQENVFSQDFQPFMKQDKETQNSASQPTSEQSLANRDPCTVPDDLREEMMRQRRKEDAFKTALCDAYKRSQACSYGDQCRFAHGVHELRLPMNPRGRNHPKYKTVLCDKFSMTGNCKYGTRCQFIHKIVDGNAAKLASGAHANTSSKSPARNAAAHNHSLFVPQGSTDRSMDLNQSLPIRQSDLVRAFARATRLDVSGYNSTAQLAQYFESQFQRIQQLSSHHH
In words: disruptors of C. elegans POS-1 RNA interaction – biochemical, fluorescence polarization, dose response (AID 1964).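 Also: purified POS-1 fused to maltose binding protein made in E. coli; potency of compounds blocking POS-1 binding to fluorescent RNA.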

Test [4] concerns the target T3, Zinc finger protein mex-5 (Caenorhabditis elegans, UniProt Q9XUB2).
T3 sequence (Q9XUB2 whole entry): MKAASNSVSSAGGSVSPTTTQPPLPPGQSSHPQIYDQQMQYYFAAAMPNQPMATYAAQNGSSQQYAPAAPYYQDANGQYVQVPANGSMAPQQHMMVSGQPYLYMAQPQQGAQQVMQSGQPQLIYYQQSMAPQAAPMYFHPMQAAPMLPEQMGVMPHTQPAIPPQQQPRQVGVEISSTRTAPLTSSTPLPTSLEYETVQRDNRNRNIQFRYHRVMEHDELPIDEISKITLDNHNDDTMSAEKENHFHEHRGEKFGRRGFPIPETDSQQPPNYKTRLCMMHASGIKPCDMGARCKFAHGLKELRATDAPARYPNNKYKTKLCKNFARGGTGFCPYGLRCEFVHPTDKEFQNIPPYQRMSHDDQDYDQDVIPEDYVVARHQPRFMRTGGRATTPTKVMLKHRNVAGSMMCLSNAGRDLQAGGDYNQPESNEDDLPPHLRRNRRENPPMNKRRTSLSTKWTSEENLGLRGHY
In words: potency of MEX-5 RNA-binding blockers – biochemical, C. elegans, fluorescence polarization, dose response (AID 1960).

In test [5] the target is Cytochrome P450 2D6 (Homo sapiens, UniProt P10635).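 Also: CYP2D6 member of a cytochrome P450 panel assay.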
For test [6], the target named is Cytochrome P450 2C9 (Homo sapiens, UniProt P11712).
For test [7], the target named is T4, Cytochrome P450 1A2 (Homo sapiens, UniProt P05177).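 Also: PubChem cytochrome P450 panel assay, CYP1A2 panel member.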
T4 sequence (P05177 whole entry): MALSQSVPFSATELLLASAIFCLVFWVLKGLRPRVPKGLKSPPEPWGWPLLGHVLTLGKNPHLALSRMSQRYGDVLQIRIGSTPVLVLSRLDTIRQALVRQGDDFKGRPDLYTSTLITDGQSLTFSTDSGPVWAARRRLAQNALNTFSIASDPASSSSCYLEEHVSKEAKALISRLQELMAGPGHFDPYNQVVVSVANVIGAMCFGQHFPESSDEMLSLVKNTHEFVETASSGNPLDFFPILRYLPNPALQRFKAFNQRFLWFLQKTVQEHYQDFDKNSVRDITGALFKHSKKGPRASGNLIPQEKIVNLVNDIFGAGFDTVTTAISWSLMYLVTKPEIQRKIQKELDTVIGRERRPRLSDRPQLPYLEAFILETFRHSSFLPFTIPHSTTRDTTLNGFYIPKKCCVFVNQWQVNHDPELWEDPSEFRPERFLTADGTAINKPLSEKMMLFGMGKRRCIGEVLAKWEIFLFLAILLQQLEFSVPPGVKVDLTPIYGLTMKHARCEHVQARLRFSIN

The target of test [8] is Cytochrome P450 2C19 (Homo sapiens, UniProt P33261). In words: Cytochrome panel assay with activity outcomes. Panel member name: p450-cyp2c19 Compounds with AC50 equal or less than 10 uM are considered active. The test is classed as functional. The conditions noted are these: read-out: AC50.
In test [9] the target is T5, Heat shock factor protein 1 (Mus musculus, UniProt P38532).
T5 sequence (P38532 whole entry): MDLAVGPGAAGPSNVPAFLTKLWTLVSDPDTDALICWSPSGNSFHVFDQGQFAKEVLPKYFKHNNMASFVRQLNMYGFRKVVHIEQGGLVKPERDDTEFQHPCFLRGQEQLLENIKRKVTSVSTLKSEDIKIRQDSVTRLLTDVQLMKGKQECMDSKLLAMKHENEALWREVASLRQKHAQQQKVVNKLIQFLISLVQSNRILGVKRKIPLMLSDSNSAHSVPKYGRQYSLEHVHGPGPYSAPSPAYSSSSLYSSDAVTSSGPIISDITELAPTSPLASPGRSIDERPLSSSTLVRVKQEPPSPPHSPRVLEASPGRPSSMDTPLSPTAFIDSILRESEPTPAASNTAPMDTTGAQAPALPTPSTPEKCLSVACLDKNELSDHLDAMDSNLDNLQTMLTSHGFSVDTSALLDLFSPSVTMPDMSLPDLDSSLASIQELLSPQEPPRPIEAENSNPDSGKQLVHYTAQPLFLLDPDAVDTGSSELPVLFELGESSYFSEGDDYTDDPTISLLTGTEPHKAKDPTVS
The test can be described thus: enhancement of HSF1-driven luciferase signal – cell-based, NIH3T3, luminescence, dose retest, confirmation (AID 435004).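 Also: stress induced by proteasome inhibitor MG132 added 30 min after compound; luciferase reporter driven by HSF1 response element in NIH3T3 cells; actives raise luminescence as potentiators of the MG132 stress response.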 The test is classed as functional.

Chain of Cytochrome P450 2D6 (P10635 whole entry): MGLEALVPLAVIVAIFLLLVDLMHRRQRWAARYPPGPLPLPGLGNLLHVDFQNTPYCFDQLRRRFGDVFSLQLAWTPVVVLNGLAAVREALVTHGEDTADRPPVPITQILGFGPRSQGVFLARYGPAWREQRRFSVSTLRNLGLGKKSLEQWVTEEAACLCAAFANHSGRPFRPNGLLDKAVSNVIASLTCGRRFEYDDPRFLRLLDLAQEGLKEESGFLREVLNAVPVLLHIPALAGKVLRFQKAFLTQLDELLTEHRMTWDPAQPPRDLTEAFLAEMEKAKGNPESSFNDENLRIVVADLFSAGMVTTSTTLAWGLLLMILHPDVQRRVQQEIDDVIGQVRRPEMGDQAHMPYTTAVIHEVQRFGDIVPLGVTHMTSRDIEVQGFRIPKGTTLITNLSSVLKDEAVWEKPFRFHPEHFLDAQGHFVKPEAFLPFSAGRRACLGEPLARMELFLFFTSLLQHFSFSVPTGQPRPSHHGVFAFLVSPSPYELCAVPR
Chain of Cytochrome P450 2C19 (P33261 whole entry): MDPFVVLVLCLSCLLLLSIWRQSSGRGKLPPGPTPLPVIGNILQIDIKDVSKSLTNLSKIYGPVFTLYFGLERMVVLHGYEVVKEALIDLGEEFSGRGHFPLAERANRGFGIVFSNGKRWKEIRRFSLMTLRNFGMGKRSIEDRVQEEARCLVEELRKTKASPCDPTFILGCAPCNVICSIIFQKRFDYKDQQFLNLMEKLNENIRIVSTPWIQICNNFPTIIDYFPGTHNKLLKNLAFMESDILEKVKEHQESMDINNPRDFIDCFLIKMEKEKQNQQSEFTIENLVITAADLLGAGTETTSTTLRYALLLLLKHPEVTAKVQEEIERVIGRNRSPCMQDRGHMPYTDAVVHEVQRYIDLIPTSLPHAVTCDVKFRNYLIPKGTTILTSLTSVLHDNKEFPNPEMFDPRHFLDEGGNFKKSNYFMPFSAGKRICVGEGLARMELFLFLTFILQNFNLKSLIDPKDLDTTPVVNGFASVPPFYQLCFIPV
Chain of Cytochrome P450 2C9 (P11712 whole entry): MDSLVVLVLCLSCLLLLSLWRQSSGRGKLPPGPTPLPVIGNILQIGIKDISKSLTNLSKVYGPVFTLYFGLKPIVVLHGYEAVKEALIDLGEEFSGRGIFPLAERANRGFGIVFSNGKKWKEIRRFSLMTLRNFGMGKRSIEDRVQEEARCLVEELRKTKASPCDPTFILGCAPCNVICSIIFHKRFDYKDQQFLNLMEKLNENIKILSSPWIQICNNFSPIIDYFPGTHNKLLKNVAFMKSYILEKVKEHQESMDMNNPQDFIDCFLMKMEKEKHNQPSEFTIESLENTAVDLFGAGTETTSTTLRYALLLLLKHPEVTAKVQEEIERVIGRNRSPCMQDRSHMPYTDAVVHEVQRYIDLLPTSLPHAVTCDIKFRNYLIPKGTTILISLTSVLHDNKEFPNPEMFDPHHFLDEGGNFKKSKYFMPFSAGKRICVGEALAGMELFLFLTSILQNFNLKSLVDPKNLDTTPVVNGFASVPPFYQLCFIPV

For `CCOc1ccccc1C1CC(c2cccc(NS(C)(=O)=O)c2)=NN1C(=O)c1ccccc1` (stereo unspecified), in test [1], the CC50 was 35.5 µM (active). With `Cc1ccc(-c2ccc(/C=N/n3cnnc3)o2)cc1Cl`, in test [1], the 50% cytotoxic concentration (CC50) is 49.7 µM (active). The same measure, in the same setting: to `CCc1ccccc1NS(=O)(=O)c1ccc(OC)c2ncccc12` belongs 16 µM (active); to `Cc1nc2ccc3nc(NC(=O)C4COc5ccccc5O4)sc3c2s1` (stereo unspecified), 41.4 µM (active). `COC(=O)COc1ccc(Oc2nc(SC)nc(N(C)C)n2)nn1`: the EC50 in [2] is > 53 µM (inactive). `NC(=O)[C@@H]1CCCN1Cc1c(C(=O)N2CCc3ccccc3C2)nc2ccc(Cl)cn12`: the EC50 in test [3] is 61.7 µM (active); in test [4] it was 47 µM (active). In the same order, the values of `CCCn1c(=N)c(C(=O)NCC2CCCO2)cc2c(=O)n3cccc(C)c3nc21` (stereo unspecified) are > 300 µM (not active) and > 300 µM (not active).

As to `CCC(=O)Nc1cc(-c2nn(C)c(=O)c3ccccc23)ccc1N1CCCCC1`, the concentration at half-maximal activity (AC50) is 11.2 µM (inconclusive) in [5], 5.01 µM (inconclusive) in test [6] and 28.2 µM (inconclusive) in [7]. With `N#Cc1nc(COc2ccccc2Cl)oc1N1CCCC1`, the CC50 in [1] is 41.5 µM (active).

As to `CC(C(=O)Nc1ccc2c(c1)OCCO2)c1ccc([N+](=O)[O-])cc1` (stereo unspecified), the EC50 in [2] is 10.7 µM (active). Regarding `Cc1nc(SCc2ccccc2F)c2cnn(-c3ccccc3)c2n1`, in test [1], the half-maximal cytotoxic concentration (CC50) is 28.5 µM (active). On the same count and under the same terms, to `Cc1c(OCC(=O)NCc2ccccn2)ccc2c3c(c(=O)oc12)CCCC3` belongs 21.2 µM (active). As to `O=C(CSCc1c(Cl)cccc1Cl)NCc1cccnc1`, the concentration at half-maximal activity (AC50) in test [6] was 7.94 µM (inconclusive).

Take `COc1ccc(C2C(C(=O)N3CCOCC3)c3ccccc3C(=O)N2c2ccc(OC)cc2)cc1` (stereo unspecified): the AC50 in test [6] was 0.501 µM (inconclusive). With `Cc1nc2ccccc2c2oc(C(=O)Nc3ccc4c(c3)OCCO4)cc12`, the results for the EC50 in [3] and in test [4] were 16.6 µM (active) and 25.9 µM (inconclusive), respectively. As for `COc1ccc2c(c1)C(=O)N(c1ccccc1)C(=O)C2`, the AC50 was 22.4 µM (inconclusive) in test [6] and 25.1 µM (inconclusive) in test [7].

For `COc1ccccc1Cn1c(=S)[nH]c2cc(C(=O)N3CCN(C)CC3)ccc2c1=O`, the AC50 in test [8] is 39.8 µM (inconclusive); in [6], 0.112 µM (inconclusive).

Regarding `Cc1cc(=O)nc2c3ccccc3n(CC(=O)Nc3ccccc3Br)n12`, the EC50 is > 300 µM (not active) in test [3] and 103 µM (active) in test [4]. Take `COc1cc(C2NC(S)=NC(C)=C2C(=O)OC(C)C)ccc1OC(C)C` (stereo unspecified): the EC50 in test [3] and in test [4] was > 300 µM (not active) in each case. In the case of `CCc1nnc(S)n1/N=C/c1ccc2c(c1)OCO2`, the AC50 in test [5] is 22.4 µM (inconclusive); in test [6], 35.5 µM (inconclusive).

Consider `O=S(=O)(O)c1cc(O)c2c(O)c(/N=N\c3cccc4ccccc34)c(S(=O)(=O)O)cc2c1`, for which, in [6], the half-maximal activity concentration (AC50) is 7.94 µM (inconclusive). Consider `O=C(CCN1CCCCC1)c1csc2ccccc12`, for which the concentration at half-maximal activity (AC50) in [6] and in [7] was 3.16 µM (inconclusive) each time. Turning to `COC(=O)N1CCC2(CCCN(c3ccccn3)C2)CC1`, the figures for the AC50 in [5], in test [6] and in [7] were 39.8 µM (inconclusive), 31.6 µM (inconclusive) and 25.1 µM (inconclusive), respectively. On to `CCN1/C(=C2/SC(=S)N(NC(C)=O)C2=O)Sc2ccccc21`, for which the EC50 in [3] was 60.7 µM (active); in test [4] it was > 300 µM (not active). As to `COC(=O)N1CCC[C@@]2(CCN(c3ccccn3)C2)C1`, the AC50 is 39.8 µM (inconclusive) in test [8] and 20 µM (inconclusive) in [6].

Take `O=C1C(Cl)=C(Nc2ccccc2O)C(=O)N1c1ccccc1`: the EC50 is > 300 µM (not active) in test [3] and 73 µM (inconclusive) in test [4]. In the same order, the values of `COC(=O)CCC(=O)OC1(C)C(=O)C=C2C=C(c3ccsc3)OC=C2C1=O` (stereo unspecified) are 36.8 µM (active) and 26.7 µM (inconclusive). Consider `COC(=O)CCCC1=CC2=CC(=O)C(C)(OC(=O)c3cccs3)C(=O)C2=CO1` (stereo unspecified), for which the EC50 in test [3] is 14 µM (active); in [4] it was 16.5 µM (active). As for `COc1ccc2[nH]c(SCC(=O)c3ccco3)nc2c1`, the AC50 in test [5] is 17.8 µM (inconclusive); in test [6], 31.6 µM (inconclusive).

In the case of `COC(=O)c1cc2sc(Cl)cc2n1CC(=O)Nc1ccc(OC)c(OC)c1OC`, the EC50 in [2] was > 53 µM (inactive).

As for `CCCS(=O)(=O)N1CCCC(C(=O)NCCCN2CCN(c3cccc(Cl)c3)CC2)C1` (stereo unspecified), the AC50 was 14.1 µM (inconclusive) in [8], 28.2 µM (inconclusive) in test [6] and 0.00631 µM (inconclusive) in test [7]. With `Cc1cc(C)c(S(=O)(=O)n2ccc(-c3ccc(OCCN(C)c4ccccn4)cc3)n2)c(C)c1`, the AC50 was 0.631 µM (inconclusive) in test [8], 1.78 µM (inconclusive) in [6] and 14.1 µM (inconclusive) in test [7]. Further, in [9], the EC50 was > 260 µM (inactive).

As to `OCCOc1ccc(C2=NCCO2)cc1`, the EC50 in test [3] and in test [4] was > 300 µM (not active) in each case.

As to `CCOC(=O)/C(C#N)=C(C)/C=C1\Sc2ccccc2N1CC`, the EC50 in [2] was 18.4 µM (active). As to `O=C1NC(=O)N(c2ccc(Br)cc2)C(=O)/C1=C/NCCN1CCCCC1`, the EC50 in test [3] is > 300 µM (not active); in test [4], 106 µM (active).
